{"source": "patent US7517874B2", "about": "(priority 2007, dated 2009)", "key": {"rat CB2 receptor (rCB2)": {"target": "T1, rat CB2 receptor (rCB2) (Rattus norvegicus, UniProt Q9QZN9)", "T1 sequence (Q9QZN9 1-360)": "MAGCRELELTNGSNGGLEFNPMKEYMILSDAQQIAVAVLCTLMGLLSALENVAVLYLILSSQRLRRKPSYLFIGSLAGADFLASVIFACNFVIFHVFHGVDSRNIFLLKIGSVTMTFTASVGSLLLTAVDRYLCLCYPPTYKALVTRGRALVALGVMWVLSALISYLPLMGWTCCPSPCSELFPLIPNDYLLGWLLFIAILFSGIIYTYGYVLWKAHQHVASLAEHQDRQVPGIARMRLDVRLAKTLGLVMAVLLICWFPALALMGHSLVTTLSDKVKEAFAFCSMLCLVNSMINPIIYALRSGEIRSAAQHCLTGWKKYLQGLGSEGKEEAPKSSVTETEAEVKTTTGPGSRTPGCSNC", "test": "cell-based", "format": "cell-based", "conditions": "for +/− RCB2: agonist or inverse agonist at rCB2", "how_it_was_run": "(§1)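 Agonism or inverse agonism was assessed as change in intracellular cAMP in CHO-K1 cells expressing human CB1 or rat CB2 (genomic DNA, pcDNA3.1).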"}, "[1]": {"target": "human CB1 receptor (hCB1) (Homo sapiens, UniProt P21554)", "sequence (P21554 whole entry)": "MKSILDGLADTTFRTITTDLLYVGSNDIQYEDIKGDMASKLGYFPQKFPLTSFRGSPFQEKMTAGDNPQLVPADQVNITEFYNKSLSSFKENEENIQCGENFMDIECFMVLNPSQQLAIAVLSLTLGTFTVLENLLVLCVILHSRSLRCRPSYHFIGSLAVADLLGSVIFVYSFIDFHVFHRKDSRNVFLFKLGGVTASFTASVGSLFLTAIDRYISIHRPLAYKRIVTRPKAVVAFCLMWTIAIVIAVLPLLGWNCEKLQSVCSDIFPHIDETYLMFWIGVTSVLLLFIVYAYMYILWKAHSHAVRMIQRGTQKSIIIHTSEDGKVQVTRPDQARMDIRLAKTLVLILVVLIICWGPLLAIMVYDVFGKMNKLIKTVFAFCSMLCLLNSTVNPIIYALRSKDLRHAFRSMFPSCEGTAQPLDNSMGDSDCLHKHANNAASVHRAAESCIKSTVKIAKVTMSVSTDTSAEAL", "test": "cell-based", "format": "cell-based", "conditions": "for +/− HCB1: agonist or inverse agonist at hCB1", "how_it_was_run": "as §1"}}, "note": "Read-outs that look alike come from different tables or passages of the source."}
{"smiles": "CNC(=O)[C@@H](NC(=O)c1nc(C2CC2)n2c1CN(C)CC2)C(C)(C)C", "note": "[Compound 269, (S)-3-cyclopropyl-N-(3,3-dimethyl-1-(methylamino)-1-oxobutan-2-yl)-7-methyl-5,6,7,8-tetrahydroimidazo[1,5-a]pyrazine-1-carboxamide]", "values": [{"measurement": "+/− RCB2", "setting": "rat CB2 receptor (rCB2)", "value": "+"}, {"measurement": "+/− HCB1", "setting": "[1]", "value": "+"}]}
{"smiles": "CC(C)C[C@H](NC(=O)c1nc(-c2ccc(F)cc2)n2c1CN(C)CCC2)C(N)=O", "note": "[Compound 565, (S)-N-(1-amino-4-methyl-1-oxopentan-2-yl)-3-(4-fluorophenyl)-8-methyl-6,7,8,9-tetrahydro-5H-imidazo[1,5-a][1,4]diazepine-1-carboxamide]", "values": [{"measurement": "+/− RCB2", "setting": "rat CB2 receptor (rCB2)", "value": "+"}, {"measurement": "EC50", "setting": "[1]", "value": "> 10000", "unit": "nM"}]}
{"smiles": "CNC(=O)[C@@H](NC(=O)c1nc(-c2ccccc2)n2c1CN(C1CC1)CCC2)C(C)(C)C", "note": "[Compound 199, (S)-8-cyclopropyl-N-(3,3-dimethyl-1-(methylamino)-1-oxobutan-2-yl)-3-phenyl-6,7,8,9-tetrahydro-5H-imidazo[1,5-a][1,4]diazepine-1-carboxamide]", "values": [{"measurement": "+/− RCB2", "setting": "rat CB2 receptor (rCB2)", "value": "+"}, {"measurement": "EC50", "setting": "[1]", "value": "> 10000", "unit": "nM"}]}
{"smiles": "CC(C)CNC(=O)[C@@H](NC(=O)c1nc(-c2ccccc2)n2c1CN(C)CCC2)C(C)(C)C", "note": "[Compound 474, (S)-N-(1-(isobutylamino)-3,3-dimethyl-1-oxobutan-2-yl)-8-methyl-3-phenyl-6,7,8,9-tetrahydro-5H-imidazo[1,5-a][1,4]diazepine-1-carboxamide]", "values": [{"measurement": "+/− RCB2", "setting": "rat CB2 receptor (rCB2)", "value": "+"}, {"measurement": "EC50", "setting": "[1]", "value": "> 10000", "unit": "nM"}]}
{"smiles": "CNC(=O)[C@@H](NC(=O)c1nc(-c2ccccn2)n2c1CN(C)CCC2)C(C)(C)C", "note": "[Compound 395, (S)-N-(3,3-dimethyl-1-(methylamino)-1-oxobutan-2-yl)-8-methyl-3-(pyridin-2-yl)-6,7,8,9-tetrahydro-5H-imidazo[1,5-a][1,4]diazepine-1-carboxamide]", "values": [{"measurement": "+/− RCB2", "setting": "rat CB2 receptor (rCB2)", "value": "+"}, {"measurement": "EC50", "setting": "[1]", "value": "> 10000", "unit": "nM"}]}
{"smiles": "CN1CCCn2c(-c3ccc(F)c(F)c3)nc(C(=O)N[C@H](C(N)=O)C(C)(C)C)c2C1", "note": "[Compound 581, (S)-N-(1-amino-3,3-dimethyl-1-oxobutan-2-yl)-3-(3,4-difluorophenyl)-8-methyl-6,7,8,9-tetrahydro-5H-imidazo[1,5-a][1,4]diazepine-1-carboxamide]", "values": [{"measurement": "+/− RCB2", "setting": "rat CB2 receptor (rCB2)", "value": "+"}, {"measurement": "+/− HCB1", "setting": "[1]", "value": "+"}]}
{"smiles": "C/C=C/c1nc(C(=O)N[C@H](C(=O)NC)C(C)(C)C)c2n1CCCN(C)C2", "note": "[Compound 376, (S,E)-N-(3,3-dimethyl-1-(methylamino)-1-oxobutan-2-yl)-8-methyl-3-(prop-1-enyl)-6,7,8,9-tetrahydro-5H-imidazo[1,5-a][1,4]diazepine-1-carboxamide]", "values": [{"measurement": "+/− RCB2", "setting": "rat CB2 receptor (rCB2)", "value": "+"}, {"measurement": "EC50", "setting": "[1]", "value": "> 10000", "unit": "nM"}]}
{"smiles": "CNC(=O)[C@@H](NC(=O)c1nc(-c2ccccc2)n2c1CN(S(=O)(=O)c1ccccc1F)CC2)C(C)(C)C", "note": "[Compound 98, (S)-N-(3,3-dimethyl-1-(methylamino)-1-oxobutan-2-yl)-7-(2-fluorophenylsulfonyl)-3-phenyl-5,6,7,8-tetrahydroimidazo[1,5-a]pyrazine-1-carboxamide]", "values": [{"measurement": "+/− RCB2", "setting": "rat CB2 receptor (rCB2)", "value": "−"}, {"measurement": "EC50", "setting": "[1]", "value": "> 10000", "unit": "nM"}]}
{"smiles": "CNC(=O)C(NC(=O)c1nc(-c2ccccc2)n2c1CNCCC2)C(C)(C)F", "note": "(stereo not drawn) [Compound 604, N-(3-fluoro-3-methyl-1-(methylamino)-1-oxobutan-2-yl)-3-phenyl-6,7,8,9-tetrahydro-5H-imidazo[1,5-a][1,4]diazepine-1-carboxamide]", "values": [{"measurement": "+/− RCB2", "setting": "rat CB2 receptor (rCB2)", "value": "+"}, {"measurement": "EC50", "setting": "[1]", "value": "> 10000", "unit": "nM"}]}
{"smiles": "CNC(=O)[C@@H](NC(=O)c1nc(-c2ccsc2)n2c1CN(Cc1cncnc1)CC2)C(C)(C)C", "note": "[Compound 76, (S)-N-(3,3-dimethyl-1-(methylamino)-1-oxobutan-2-yl)-7-(pyrimidin-5-ylmethyl)-3-(thiophen-3-yl)-5,6,7,8-tetrahydroimidazo[1,5-a]pyrazine-1-carboxamide]", "values": [{"measurement": "+/− RCB2", "setting": "rat CB2 receptor (rCB2)", "value": "+"}, {"measurement": "EC50", "setting": "[1]", "value": "> 10000", "unit": "nM"}]}
{"smiles": "CCN1CCn2c(-c3ccccc3)nc(C(=O)Nc3ccccc3)c2C1", "note": "[Compound 152, 7-ethyl-N,3-diphenyl-5,6,7,8-tetrahydroimidazo[1,5-a]pyrazine-1-carboxamide]", "values": [{"measurement": "+/− RCB2", "setting": "rat CB2 receptor (rCB2)", "value": "−"}, {"measurement": "EC50", "setting": "[1]", "value": "> 10000", "unit": "nM"}]}
{"smiles": "CCN(CC)C/C=C/c1nc(C(=O)N[C@H](C(=O)NC)C(C)(C)C)c2n1CCCN(C)C2", "note": "[Compound 512, (S,E)-3-(3-(diethylamino)prop-1-enyl)-N-(3,3-dimethyl-1-(methylamino)-1-oxobutan-2-yl)-8-methyl-6,7,8,9-tetrahydro-5H-imidazo[1,5-a][1,4]diazepine-1-carboxamide]", "values": [{"measurement": "EC50", "setting": "rat CB2 receptor (rCB2)", "value": "> 10", "unit": "µM"}, {"measurement": "EC50", "setting": "[1]", "value": "> 10000", "unit": "nM"}]}
{"smiles": "CNC(=O)[C@@H](NC(=O)c1nc(C(C)=C(C)C)n2c1CN(C)CCC2)C(C)(C)C", "note": "[Compound 454, (S)-N-(3,3-dimethyl-1-(methylamino)-1-oxobutan-2-yl)-8-methyl-3-(3-methylbut-2-en-2-yl)-6,7,8,9-tetrahydro-5H-imidazo[1,5-a][1,4]diazepine-1-carboxamide]", "values": [{"measurement": "+/− RCB2", "setting": "rat CB2 receptor (rCB2)", "value": "−"}, {"measurement": "+/− HCB1", "setting": "[1]", "value": "+"}]}
{"smiles": "CNC(=O)[C@H](CC(C)(C)C)NC(=O)c1nc(-c2ccc(C(F)(F)F)cc2F)n2c1CN(C)CCC2", "note": "[Compound 551, (S)-N-(4,4-dimethyl-1-(methylamino)-1-oxopentan-2-yl)-3-(2-fluoro-4-(trifluoromethyl)phenyl)-8-methyl-6,7,8,9-tetrahydro-5H-imidazo[1,5-a][1,4]diazepine-1-carboxamide]", "values": [{"measurement": "+/− RCB2", "setting": "rat CB2 receptor (rCB2)", "value": "+"}, {"measurement": "+/− HCB1", "setting": "[1]", "value": "+"}]}
{"smiles": "CNC(=O)[C@@H](NC(=O)c1nc(-c2ccc(Cl)cc2)n2c1CNCC2)C(C)(C)C", "note": "[Compound 9, (S)-3-(4-chlorophenyl)-N-(3,3-dimethyl-1-(methylamino)-1-oxobutan-2-yl)-5,6,7,8-tetrahydroimidazo[1,5-a]pyrazine-1-carboxamide]", "values": [{"measurement": "+/− RCB2", "setting": "rat CB2 receptor (rCB2)", "value": "−"}, {"measurement": "EC50", "setting": "[1]", "value": "> 10000", "unit": "nM"}]}
{"smiles": "CC(=O)N1CCn2c(-c3ccccc3)nc(C(=O)N[C@H](C)C3CCCCC3)c2C1", "note": "[Compound 170, (R)-7-acetyl-N-(1-cyclohexylethyl)-3-phenyl-5,6,7,8-tetrahydro-imidazo[1,5-a]pyrazine-1-carboxamide]", "values": [{"measurement": "+/− RCB2", "setting": "rat CB2 receptor (rCB2)", "value": "−"}, {"measurement": "EC50", "setting": "[1]", "value": "> 10000", "unit": "nM"}]}
{"smiles": "CCCC(CO)NC(=O)c1nc(-c2ccccc2)n2c1CN(C)CC2", "note": "(stereo not drawn) [Compound 233, N-(1-hydroxypentan-2-yl)-7-methyl-3-phenyl-5,6,7,8-tetrahydroimidazo[1,5-a]pyrazine-1-carboxamide]", "values": [{"measurement": "EC50", "setting": "rat CB2 receptor (rCB2)", "value": "> 10", "unit": "µM"}, {"measurement": "EC50", "setting": "[1]", "value": "> 10000", "unit": "nM"}]}
{"smiles": "CNC(=O)[C@@H](NC(=O)c1nc(-c2cnc(OC)nc2OC)n2c1CN(C)CCC2)C(C)(C)C", "note": "[Compound 344, (S)-3-(2,4-dimethoxypyrimidin-5-yl)-N-(3,3-dimethyl-1-(methylamino)-1-oxobutan-2-yl)-8-methyl-6,7,8,9-tetrahydro-5H-imidazo[1,5-a][1,4]diazepine-1-carboxamide]", "values": [{"measurement": "EC50", "setting": "rat CB2 receptor (rCB2)", "value": "> 10", "unit": "µM"}, {"measurement": "EC50", "setting": "[1]", "value": "> 10000", "unit": "nM"}]}
{"smiles": "CC(C)CN1CCn2c(-c3ccccc3)nc(C(=O)N3CCOCC3)c2C1", "note": "[Compound 70, (7-isobutyl-3-phenyl-5,6,7,8-tetrahydroimidazo[1,5-a]pyrazin-1-yl)(morpholino)methanone]", "values": [{"measurement": "+/− RCB2", "setting": "rat CB2 receptor (rCB2)", "value": "−"}, {"measurement": "EC50", "setting": "[1]; groups >100 nM-10 μM and >10 μM, cAMP, CHO-K1 hCB1, read-out: EC50 HCB1", "value": "> 10000", "unit": "nM"}]}
{"smiles": "CNC(=O)[C@@H](NC(=O)c1nc(C(C)C)n2c1CN(C)CCC2)C(C)(C)C", "note": "[Compound 496, (S)-N-(3,3-dimethyl-1-(methylamino)-1-oxobutan-2-yl)-3-isopropyl-8-methyl-6,7,8,9-tetrahydro-5H-imidazo[1,5-a][1,4]diazepine-1-carboxamide]", "values": [{"measurement": "+/− RCB2", "setting": "rat CB2 receptor (rCB2)", "value": "+"}, {"measurement": "EC50", "setting": "[1]", "value": "> 10000", "unit": "nM"}]}
{"smiles": "CNC(=O)[C@@H](NC(=O)c1nc(C2=CCCC2)n2c1CN(C)CCC2)C(C)(C)C", "note": "[Compound 456]", "values": [{"measurement": "+/− RCB2", "setting": "rat CB2 receptor (rCB2)", "value": "+"}, {"measurement": "EC50", "setting": "[1]", "value": "> 10000", "unit": "nM"}]}
{"smiles": "CNC(=O)[C@@H](NC(=O)c1nc(-c2ccccc2)n2c1CN(S(C)(=O)=O)CC2)C(C)(C)C", "note": "[Compound 92, (S)-N-(3,3-dimethyl-1-(methylamino)-1-oxobutan-2-yl)-7-(methylsulfonyl)-3-phenyl-5,6,7,8-tetrahydroimidazo[1,5-a]pyrazine-1-carboxamide]", "values": [{"measurement": "+/− RCB2", "setting": "rat CB2 receptor (rCB2)", "value": "−"}, {"measurement": "EC50", "setting": "[1]", "value": "> 10000", "unit": "nM"}]}
{"smiles": "CNC(=O)[C@@H](NC(=O)c1nc(C2CCCCC2)n2c1CN(C)CCC2)C(C)(C)C", "note": "[Compound 487, (S)-3-cyclohexyl-N-(3,3-dimethyl-1-(methylamino)-1-oxobutan-2-yl)-8-methyl-6,7,8,9-tetrahydro-5H-imidazo[1,5-a][1,4]diazepine-1-carboxamide]", "values": [{"measurement": "+/− RCB2", "setting": "rat CB2 receptor (rCB2)", "value": "+"}, {"measurement": "EC50", "setting": "[1]", "value": "> 10000", "unit": "nM"}]}
{"smiles": "CCN1CCCn2c(-c3ccccc3)nc(C(=O)N[C@H](C(=O)NC)C(C)(C)C)c2C1", "note": "[Compound 318, (S)-N-(3,3-dimethyl-1-(methylamino)-1-oxobutan-2-yl)-8-ethyl-3-phenyl-6,7,8,9-tetrahydro-5H-imidazo[1,5-a][1,4]diazepine-1-carboxamide]", "values": [{"measurement": "+/− RCB2", "setting": "rat CB2 receptor (rCB2)", "value": "+"}, {"measurement": "EC50", "setting": "[1]", "value": "> 10000", "unit": "nM"}]}
